Values of other authors, collected in patent US5348748A, “Pulsatile once-a-day delivery systems for minocycline” (American Cyanamid Company, priority 1993, dated 1994).

Tests used:
[1] = taken with food
[2] = system: wide range of gram-negative and gram-positive bacteria; details: PDR 43rd Ed.

CN(C)c1ccc(O)c2c1C[C@H]1C[C@H]3[C@H](N(C)C)C(=O)C(C(N)=O)=C(O)[C@@]3(O)C(=O)C1=C2O [minocycline, 7-dimethylamino-6-deoxy-6-demethyltetracycline]
half life [1]: 14 to 16 h
susceptibility of organisms in words [2]: susceptible
absorption in the lower gastrointestinal tract in words: reduced absorption in the lower gastrointestinal tract
